Consider four compounds from patent US9873659B2, “Solutions of trialkali metal salts of MGDA with an excess of L-enantiomer, their manufacture and use” (BASF SE, priority 2014, dated 2018).

The conditions of data set [1]: room temperature; colder solutions may lead to precipitation; cited from earlier work.
The nature of data set [2]: Solubility experiments: concentrated aqueous solutions stored and checked for crystallization or precipitation. The data set is classed as physicochemical. As to conditions: for sign of crystallization or precipitation on storage: aqueous solution, 90 days at 20° C.; for solids content of the concentrated aqueous solution that stayed free of crystallization or precipitation: concentrated by evaporation of water at 70° C., cooled to ambient temperature, stable 90 days at 20° C. On the procedure: In each case, the solubility refers to MGDA without hydrate water.
It was allowed to cool down to ambient temperature.
The aqueous solution of MGDA-K2.35Na0.65 obtained according to I.4 was concentrated by evaporation of a part of the water at 70° C. until the solids content was 65% by weight. It was allowed to cool down to ambient temperature.

With `CC(C(=O)[O-])N(CC(=O)[O-])CC(=O)[O-].[Na+].[Na+].[Na+]` (racemic) [racemic MGDA trisodium salt], the “concentration of aqueous solution that can be made and stored” value in data set [1] is reported as “about 40 % by weight”.

As to “MGDA-K2.35Na0.65 [MGDA-K2.35Na0.65 obtained according to I.4]”, the “sign of crystallization or precipitation on storage” value (“sign” for short) in data set [2] (solids content 65% by weight) is given as “did not show any sign of crystallization or precipitation”. Besides, in data set [2], the “solids content of the concentrated aqueous solution that stayed free of crystallization or precipitation” value is given as 65 % by weight.

For the compound “MGDA-K2.35Na0.65 [MGDA-K2.35Na0.65 obtained according to I.3]”, the “sign” value in data set [2] (solids content 61.1% by weight) was “did not show any sign of crystallization or precipitation”. Further, the “solids content of the concentrated aqueous solution that stayed free of crystallization or precipitation” value in data set [2] was found to be 61.1 % by weight.

On to “MGDA-K2.35Na0.65 [MGDA-K2.35Na0.65 obtained according to I.2]”, for which, in data set [2] (solids content 64.5% by weight), the “sign” value was “did not show any sign of crystallization or precipitation”. Also, in data set [2], the “solids content of the concentrated aqueous solution that stayed free of crystallization or precipitation” value is 64.5 % by weight.
